Experiments:
[1] = test system: erythrocytes (RBCs); test: Membrane disruption ability of LNP (hemolytic activity); format: cell-based, BALB/c mice; conditions: pH 6.0, 37°C, 30 minutes, Fig. 6B
Method: In order to use as an index of endosomal escape efficiency of LNP, membrane disruption ability of LNP was evaluated using erythrocytes as a model biological membrane. Specifically, fresh erythrocytes (RBCs) were collected from BALB/c mice and suspended in a buffer solution (10 mM malic acid, 10 mM HEPES, 10 mM MES, and 120 mM NaCl) at pH 5.0, 6.0, or 7.4. The RBC suspension was mixed with the same amount of each LNP suspension (containing DOPE-C8, DOPE, or DSPC as phospholipid) and reacted at 37°C for 30 minutes. Then, the supernatant was collected, absorbance at 545 nm was measured, and hemoglobin leaked from the erythrocytes was quantified. As a positive control, a sample hemolyzed with 0.5 w/v% Triton X-100 was prepared, and as a negative control, a sample not containing LNP was prepared. The ratio of the absorbance of the test sample to the absorbance of the positive control was expressed as % hemolytic activity.

[2] = Lipid polymorphism by 31P NMR method (mixtures with POPC); format: physicochemical
Method: In order to examine the interaction between DOPE-Cx and PC and characteristics thereof, lipid polymorphism of the lipid suspension was evaluated by a ^31P NMR method. Since the rotational motion of lipid molecules in a lamellar phase which is a planar structure and a (inverted) hexagonal phase which is a tubular structure receives different restrictions respectively, a specific ^31P NMR spectrum is provided by chemical shift anisotropy. Specifically, the lamellar phase produces a broad […] peak, and the (inverted) hexagonal phase produces a broad […] peak.
First, DOPE or DOPE-C8 and 1-palmitoyl-2-oleoyl-sn-glycero-3-phosphocholine (POPC) were mixed at a predetermined ratio in 400 µL of chloroform (total lipid 16 µmol), and the solvent was removed by a rotary evaporator to form a lipid membrane. The lipid membrane was hydrated with 500 µL of 20 mM HEPES buffer (pH 7.4, 130 mM NaCl) at 60°C. Then, the lipid dispersion was transferred to an NMR tube, and a ^31P NMR spectrum at room temperature was measured by a conventional method using an ECX 400P spectrometer (JEOL Ltd.).

[3] = Ribogreen assay, mRNA encapsulation efficiency of LNP; format: physicochemical; conditions: mRNA-LNP formulation phospholipid:CL4F6:Chol:PEG-DMG 10:50:40:1.0, Fluc mRNA
Method: (§1) Ethanol solutions containing each phospholipid, CL4F6, Chol, and PEG2000-dimirystoylglycerol (PEG-DMG) at the molar ratio of 10:50:40:1.0 were prepared at the total lipid concentration of 16 mM. For fluorescent labeling of LNPs, 0.5 mol% of DiI or DiR was added to the above solutions. The firefly luciferase (Fluc)-encoding mRNA (TriLink) was dissolved in a 25 mM acetate buffer (pH 4.0). LNPs were prepared by mixing the lipids in ethanol and RNA in an aqueous solution using an iLiNP device at a total flow rate (TFR) of 0.5 mL/min and a flow rate ratio (FRR) (RNA flow rate/lipid flow rate) of 3. The nitrogen to phosphate (N/P) ratio was adjusted to 6. Syringe pumps (Harvard apparatus) were used to control the flow rate of the solutions. The resulting LNP solutions were then dialyzed for 2 hours or more at 4 °C against phosphate buffered saline without Ca^2+ and Mg^2+ (PBS(-)) using Spectra/Por 4 dialysis membranes (molecular weight cut-off 12,000-14,000 Da, Spectrum Laboratories). The LNP solutions were concentrated by ultrafiltration using an Amicon Ultra-15 unit (MWCO 100 kDa, Millipore) as needed.
(§2) The ζ-average particle size, polydispersity index (PDI), and ζ-potential of the LNPs were measured by means of a Zetasizer Nano ZS ZEN3600 instrument (Malvern Instruments). The encapsulation efficiency and total concentration of mRNA were measured by a Ribogreen assay according to a conventional method.

[4] = Particle size, PDI and ζ-potential of mRNA-LNP (Zetasizer Nano ZS); format: physicochemical; conditions: mRNA-LNP formulation phospholipid:CL4F6:Chol:PEG-DMG 10:50:40:1.0, Fluc mRNA
Method: as §1, §2

[5] = test system: liver; test: mRNA introduction ability: luciferase activity in the liver after intravenous Fluc mRNA-LNP; format: in vivo, BALB/c mice; conditions: 0.01 mg RNA/kg, livers collected 6 hours later
Method: as §1, with “The resulting LNP solutions were then dialyzed for 2 hours or more at 4 °C against phosphate buffered saline without Ca^2+ and Mg^2+ (PBS(-)) using Spectra/Por 4 dialysis membranes (molecular weight cut-off 12,000-14,000 Da, Spectrum Laboratories). The LNP solutions were concentrated by ultrafiltration using an Amicon Ultra-15 unit (MWCO 100 kDa, Millipore) as needed.” left out
The mRNA-LNP formulations prepared in the above item (2) were intravenously administered to BALB/c mice at a dose of 0.01 mg RNA/kg, and the livers were collected by a conventional method 6 hours later. […] The supernatant was collected, and […] was measured by a luminometer (Luminescencer-PSN, ATTO Corporation) using Luciferase Assay System (Promega). The protein concentration was determined using a BCA protein assay kit (Pierce). Fluc activity was expressed as relative light units (RLU) per 1 mg of protein.

[6] = Lipid polymorphism by SAXS method; format: physicochemical; conditions: DOPE-C8 and POPC at a molar ratio of 1:1, Fig. 10
Method: In order to identify the phase of the lipid suspension obtained by mixing DOPE-C8 and POPC at a molar ratio of 1:1, measurement by a small-angle X-ray scattering (SAXS) method was performed by a conventional method using a NANO-Viewer apparatus (Rigaku Corporation).

[7] = test system: liver; test: EGFP expression in the liver after intravenous EGFP mRNA-LNP (CLSM); format: in vivo, BALB/c mice; conditions: Fig. 5, LNP containing the phospholipid, 1 mg RNA/kg, 24 hours later, compared with DSPC or DOPE LNP
Method: Further, an mRNA-LNP formulation was prepared in the same manner as in the above item (2) except that mRNA encoding EGFP (TriLink) was used as mRNA, and it was intravenously administered to BALB/c mice at a dose of 1 mg RNA/kg. Then, 24 hours later, the liver was collected by a conventional method, and expression of EGFP was observed using a confocal laser scanning microscope (CLSM).

[8] = lipid alone (lipid:POPC=1:0), 20 mM HEPES pH 7.4, room temperature

Row | SMILES | membrane disruption activity (hemolytic activity) [1] | lipid phase by 31P NMR spectrum [2, 8] | mRNA encapsulation rate % ([3]; Table 1) | mRNA encapsulation rate % ([3]; Table 2) | Number average particle size (nm) ([4]; Table 1) | PDI ([4]; Table 1) | ζ-potential (mV) ([4]; Table 1) | ζ-average particle size (nm) ([4]; Table 1, N/P 6) | Number average particle size (nm) ([4]; Table 2) | PDI ([4]; Table 2) | ζ-average particle size (nm) ([4]; Table 2) | ζ-potential (mV) ([4]; Table 2) | also measured
1 | CCCCCCCC/C=C\CCCCCCCC(=O)OC[C@H](COP(=O)(O)OCCN)OC(=O)CCCCCCC/C=C\CCCCCCCC [DOPE, 1,2-dioleoyl-sn-glycero-3-phosphoethanolamine, reference compound] | higher membrane disruption activity than the LNP containing DSPC | spectrum derived from the inverted hexagonal phase | 93.0% | 92.8% | 57 nm | 0.25 | -2.5 mV | 88 nm | 67 nm | 0.13 | 95 nm | -2.9 mV | lipid phase by 31P NMR spectrum ([2]; lipid:POPC=9:1, 20 mM HEPES pH 7.4, room temperature): transition to the lamellar phase occurred
2 | CCCCCCCC/C=C\CCCCCCCC(=O)OC[C@H](COP(=O)(O)OCCNCCC(=O)OCC(CC)CCCC)OC(=O)CCCCCCC/C=C\CCCCCCCC (stereo partly drawn) [DOPE-C6_β2, (R)-2,3-bis(oleoyloxy)propyl (2-((3-((2-ethylhexyl)oxy)-3-oxopropyl)ammonio)ethyl) phosphate] |  |  |  | 95.7% |  |  |  |  | 73 nm | 0.07 | 94 nm | -5.0 mV | luciferase activity in the liver ([5]; Figs. 3 and 4, LNP containing the phospholipid): highest activity
3 | CCCCCCCC/C=C\CCCCCCCC(=O)OC[C@H](COP(=O)(O)OCCNCCC(=O)OCCCCCCCC)OC(=O)CCCCCCC/C=C\CCCCCCCC [DOPE-C8, (R)-2,3-bis(oleoyloxy)propyl (2-((3-(octyloxy)-3-oxopropyl)ammonio)ethyl) phosphate] | higher membrane disruption activity than the LNP containing DSPC | spectrum derived from the inverted hexagonal phase | 92.6% |  | 62 nm | 0.21 | -5.6 mV | 94 nm |  |  |  |  | lipid phase by 31P NMR spectrum ([2]; POPC content increased beyond 1:1, Fig. 7B): the peak derived from the lamellar phase became stronger in a POPC content-dependent manner; lipid phase by 31P NMR spectrum ([2]; lipid:POPC molar ratio 1:1, 20 mM HEPES pH 7.4, room temperature): sharp peak centered at 0 ppm; luciferase activity in the liver ([5]; Fig. 2, n=3, LNP containing the phospholipid): highest activity; mRNA encapsulation rate % ([3]; Table 3): 97.6%; phase of the lipid suspension by SAXS [6]: Im3m type inverse bicontinuous cubic phase; expression of EGFP in the liver [7]: significantly higher expression of EGFP; Number average particle size (nm) ([4]; Table 3): 55 nm; PDI ([4]; Table 3): 0.17; ζ-average particle size (nm) ([4]; Table 3): 80 nm; ζ-potential (mV) ([4]; Table 3): -12.8 mV

From patent publication EP4796551A1, “ZWITTERIONIC PHOSPHOLIPID COMPOUND AND LIPID NANOPARTICLE CONTAINING THE SAME” (National University Corporation Hokkaido University, priority 2023, dated 2025)
